Organism: Rattus norvegicus
Assay: Open TG-GATES - Regimen: Daily Repeat
Assay type: toxicity, organism-based, Sprague-Dawley
Set-up: regimen Daily Repeat, gender Male, age 6 weeks
Conditions: in vivo, po, 100 mg/kg, route gavage, dose level Middle; for APTT / Bas / Eos / Fbg / Hb / Ht / Lym / MCH / MCHC / MCV / Mono / Neu / PT / Plat / RBC / Ret / WBC: tissue Blood; for KIDNEY_L / KIDNEY_R / KIDNEY_TOTAL: tissue Kidney; for LIVER: tissue Liver; for A/G / ALP / ALT / AST / BUN / CRE / Ca / Cl / DBIL / GLC / IP / K / LDH / Na / PL / RALB / TBIL / TC / TG / TP / gamma-GTP: tissue Plasma

ClC(Cl)(Cl)Cl [CARBON TETRACHLORIDE]
TERMINAL_BW (72 h, time 3 day): 216.4 g
APTT (72 h, time 3 day): 20.1 s
Bas (72 h, time 3 day): 0%
Eos (72 h, time 3 day): 1%
Fbg (72 h, time 3 day): 220 mg/dL
Hb (72 h, time 3 day): 13.9 g/dL
Ht (72 h, time 3 day): 40.9%
Lym (72 h, time 3 day): 75%
MCH (72 h, time 3 day): 21.3 pg
MCHC (72 h, time 3 day): 34%
MCV (72 h, time 3 day): 62.6 fL
Mono (72 h, time 3 day): 3.4%
Neu (72 h, time 3 day): 19.6%
PT (72 h, time 3 day): 12.6 s
Plat (72 h, time 3 day): 123.3 x10_4/uL
RBC (72 h, time 3 day): 653.4 x10_4/ul
Ret (72 h, time 3 day): 5.6%
WBC (72 h, time 3 day): 95 x10_2/uL
KIDNEY_L (72 h, time 3 day): 0.9 g
KIDNEY_R (72 h, time 3 day): 0.9 g
KIDNEY_TOTAL (72 h, time 3 day): 1.8 g
LIVER (72 h, time 3 day): 10.9 g
A/G (72 h, time 3 day): 1.5
ALP (72 h, time 3 day): 1153 IU/L
ALT (72 h, time 3 day): 68.6 IU/L
AST (72 h, time 3 day): 164.4 IU/L
BUN (72 h, time 3 day): 13 mg/dL
CRE (72 h, time 3 day): 0.4 mg/dL
Ca (72 h, time 3 day): 10.9 mg/dL
Cl (72 h, time 3 day): 103.4 meq/L
DBIL (72 h, time 3 day): 0.066 mg/dL
GLC (72 h, time 3 day): 184.4 mg/dL
IP (72 h, time 3 day): 7.3 mg/dL
K (72 h, time 3 day): 4 meq/L
LDH (72 h, time 3 day): 279.4 IU/L
Na (72 h, time 3 day): 140 meq/L
PL (72 h, time 3 day): 132.2 mg/dL
RALB (72 h, time 3 day): 3.2 g/dL
TBIL (72 h, time 3 day): 0.1 mg/dL
TC (72 h, time 3 day): 61.6 mg/dL
TG (72 h, time 3 day): 30 mg/dL
TP (72 h, time 3 day): 5.4 g/dL
gamma-GTP (72 h, time 3 day): 1.4 IU/L
TERMINAL_BW ([…], time 7 day): 247.4 g
TERMINAL_BW ([…], time 14 day): 301.8 g
TERMINAL_BW ([…], time 28 day): 377.7 g
APTT ([…], time 7 day): 19.9 s
Bas ([…], time 7 day): 0%
Eos ([…], time 7 day): 1%
Fbg ([…], time 7 day): 229.6 mg/dL
Hb ([…], time 7 day): 13.9 g/dL
Ht ([…], time 7 day): 40.5%
Lym ([…], time 7 day): 83.4%
MCH ([…], time 7 day): 21.7 pg
MCHC ([…], time 7 day): 34.4%
MCV ([…], time 7 day): 63 fL
Mono ([…], time 7 day): 3%
Neu ([…], time 7 day): 12.8%
PT ([…], time 7 day): 12.1 s
Plat ([…], time 7 day): 112.3 x10_4/uL
RBC ([…], time 7 day): 642.2 x10_4/ul
Ret ([…], time 7 day): 5.8%
WBC ([…], time 7 day): 127.1 x10_2/uL
APTT ([…], time 14 day): 22.1 s
Bas ([…], time 14 day): 0%
Eos ([…], time 14 day): 0.8%
Fbg ([…], time 14 day): 217.4 mg/dL
Hb ([…], time 14 day): 14 g/dL
Ht ([…], time 14 day): 41.6%
Lym ([…], time 14 day): 80.2%
MCH ([…], time 14 day): 20.1 pg
MCHC ([…], time 14 day): 33.6%
MCV ([…], time 14 day): 59.6 fL
Mono ([…], time 14 day): 3.2%
Neu ([…], time 14 day): 16%
PT ([…], time 14 day): 12.2 s
Plat ([…], time 14 day): 113 x10_4/uL
RBC ([…], time 14 day): 699 x10_4/ul
Ret ([…], time 14 day): 4%
WBC ([…], time 14 day): 110.8 x10_2/uL
APTT ([…], time 28 day): 20.8 s
Bas ([…], time 28 day): 0%
Eos ([…], time 28 day): 0.6%
Fbg ([…], time 28 day): 209.4 mg/dL
Hb ([…], time 28 day): 14.7 g/dL
Ht ([…], time 28 day): 42.8%
Lym ([…], time 28 day): 78.4%
MCH ([…], time 28 day): 18.3 pg
MCHC ([…], time 28 day): 34.3%
MCV ([…], time 28 day): 53.4 fL
Mono ([…], time 28 day): 3.8%
Neu ([…], time 28 day): 16.8%
PT ([…], time 28 day): 12.5 s
Plat ([…], time 28 day): 111.2 x10_4/uL
RBC ([…], time 28 day): 801.8 x10_4/ul
Ret ([…], time 28 day): 3%
WBC ([…], time 28 day): 148.3 x10_2/uL
KIDNEY_L ([…], time 7 day): 1.1 g
KIDNEY_R ([…], time 7 day): 1.1 g
KIDNEY_TOTAL ([…], time 7 day): 2.2 g
KIDNEY_L ([…], time 14 day): 1.1 g
KIDNEY_R ([…], time 14 day): 1.2 g
KIDNEY_TOTAL ([…], time 14 day): 2.3 g
KIDNEY_L ([…], time 28 day): 1.3 g
KIDNEY_R ([…], time 28 day): 1.3 g
KIDNEY_TOTAL ([…], time 28 day): 2.6 g
LIVER ([…], time 7 day): 13.2 g
LIVER ([…], time 14 day): 15.1 g
LIVER ([…], time 28 day): 18.2 g
A/G ([…], time 7 day): 1.4
ALP ([…], time 7 day): 942.6 IU/L
ALT ([…], time 7 day): 53.4 IU/L
AST ([…], time 7 day): 113.4 IU/L
BUN ([…], time 7 day): 15.4 mg/dL
CRE ([…], time 7 day): 0.4 mg/dL
Ca ([…], time 7 day): 10.6 mg/dL
Cl ([…], time 7 day): 104.4 meq/L
DBIL ([…], time 7 day): 0.074 mg/dL
GLC ([…], time 7 day): 193.8 mg/dL
IP ([…], time 7 day): 7.6 mg/dL
K ([…], time 7 day): 4 meq/L
LDH ([…], time 7 day): 231.2 IU/L
Na ([…], time 7 day): 141 meq/L
PL ([…], time 7 day): 142.8 mg/dL
RALB ([…], time 7 day): 3.2 g/dL
TBIL ([…], time 7 day): 0.1 mg/dL
TC ([…], time 7 day): 63.4 mg/dL
TG ([…], time 7 day): 62.6 mg/dL
TP ([…], time 7 day): 5.5 g/dL
gamma-GTP ([…], time 7 day): 1.4 IU/L
A/G ([…], time 14 day): 1.6
ALP ([…], time 14 day): 1040.6 IU/L
ALT ([…], time 14 day): 106 IU/L
AST ([…], time 14 day): 165.4 IU/L
BUN ([…], time 14 day): 15.2 mg/dL
CRE ([…], time 14 day): 0.4 mg/dL
Ca ([…], time 14 day): 10.7 mg/dL
Cl ([…], time 14 day): 104 meq/L
DBIL ([…], time 14 day): 0.06 mg/dL
GLC ([…], time 14 day): 184.2 mg/dL
IP ([…], time 14 day): 7.6 mg/dL
K ([…], time 14 day): 3.8 meq/L
LDH ([…], time 14 day): 281.4 IU/L
Na ([…], time 14 day): 142 meq/L
PL ([…], time 14 day): 131.2 mg/dL
RALB ([…], time 14 day): 3.5 g/dL
TBIL ([…], time 14 day): 0.1 mg/dL
TC ([…], time 14 day): 64.4 mg/dL
TG ([…], time 14 day): 38.8 mg/dL
TP ([…], time 14 day): 5.7 g/dL
gamma-GTP ([…], time 14 day): 0.8 IU/L
A/G ([…], time 28 day): 1.4
ALP ([…], time 28 day): 760.2 IU/L
ALT ([…], time 28 day): 103.2 IU/L
AST ([…], time 28 day): 131 IU/L
BUN ([…], time 28 day): 16 mg/dL
CRE ([…], time 28 day): 0.5 mg/dL
Ca ([…], time 28 day): 10.3 mg/dL
Cl ([…], time 28 day): 102.6 meq/L
DBIL ([…], time 28 day): 0.072 mg/dL
GLC ([…], time 28 day): 203.6 mg/dL
IP ([…], time 28 day): 6.8 mg/dL
K ([…], time 28 day): 3.8 meq/L
LDH ([…], time 28 day): 390 IU/L
Na ([…], time 28 day): 140.8 meq/L
PL ([…], time 28 day): 122.8 mg/dL
RALB ([…], time 28 day): 3.4 g/dL
TBIL ([…], time 28 day): 0.1 mg/dL
TC ([…], time 28 day): 57 mg/dL
TG ([…], time 28 day): 32.2 mg/dL
TP ([…], time 28 day): 5.9 g/dL
gamma-GTP ([…], time 28 day): 1.2 IU/L

From ChEMBL document CHEMBL3885861, “Open TG-GATES”
